Results taken from ChEMBL document CHEMBL6134849, “A Water-Soluble Aggregation-Induced Emission Photosensitizer with Intrinsic Antibacterial Activity as an Antiplanktonic and Antibiofilm Therapeutic Agent” (J Med Chem, 2025).
The source made the active and inactive calls.

Columns and labels:
[1] = Induction of type-II ROS generation in PBS assessed as increase in singlet oxygen by measuring increase in SOSG fluorescence intensity at 10 uM irradiated with 660 nm 60 mW/cm2 light for 15 mins by SOSG probe based plate reader analysis; assay type: functional
[2] = Induction of type-I ROS generation in PBS assessed as increase in nonspecific ROS by measuring increase in DHR123 fluorescence intensity at 10 uM irradiated with 660 nm 60 mW/cm2 light for 15 mins by DHR123 probe based plate reader analysis; assay type: functional
[3] = Induction of type-II ROS generation in PBS assessed as increase in nonspecific ROS by measuring increase in DHR123 fluorescence intensity at 10 uM irradiated with 660 nm 60 mW/cm2 light for 15 mins by DHR123 probe based plate reader analysis; assay type: functional
Lipopolysaccharide (LPS) = assay: Displacement of BODIPY-TR Cadaverine from Pseudomonas aeruginosa lipopolysaccharide (LPS) assessed as increase in fluorescence intensity at 10 uM incubated for 30 mins by fluorescence based plate reader analysis
[4] = Induction of […] ROS generation in PBS assessed as increase in hydroxyl radical by measuring increase in HPF fluorescence intensity at 10 uM irradiated with 660 nm 60 mW/cm2 light for 15 mins by HPF probe based plate reader analysis; assay type: functional
Lipoteichoic acid = assay: Displacement of BODIPY-TR Cadaverine from Staphylococcus aureus lipoteichoic acid (LTA) assessed as increase in fluorescence intensity at 10 uM incubated for 30 mins by fluorescence based plate reader analysis
[5] = Induction of type-I ROS generation in PBS assessed as increase in hydroxyl radical by measuring increase in HPF fluorescence intensity at 10 uM irradiated with 660 nm 60 mW/cm2 light for 15 mins by HPF probe based plate reader analysis; assay type: functional
[6] = Induction of type-I ROS generation in PBS assessed as increase in singlet oxygen by measuring increase in SOSG fluorescence intensity at 10 uM irradiated with 660 nm 60 mW/cm2 light for 15 mins by SOSG probe based plate reader analysis; assay type: functional

Measured: Activity

CC[n+]1c(/C=C/c2ccc(-c3ccc(N(c4ccc(OCCC[N+](C)(C)C)cc4)c4ccc(OCCC[N+](C)(C)C)cc4)cc3)s2)sc2ccccc21
active: [1] | [2] | [3] | Lipopolysaccharide (LPS) | [4] | Lipoteichoic acid | [5] | [6]
